Experimental data from patent US12162888B2, “Carboxamides as ubiquitin-specific protease inhibitors” (Valo Early Discovery, Inc., priority 2018, dated 2024).
Where two headings read alike, the source gives them in different places.

Target: T1, USP28 (His-tagged USP28-FL-mammalian) (Homo sapiens, UniProt Q96RU2)
T1 construct: Expression of USP28 (1-1077)-TEV-6*His (pTT5 vector) was carried out in Expi293f cells; made in house; host or cells: Expi293F cells (pTT5 vector)
T1 sequence (Q96RU2 1-1077): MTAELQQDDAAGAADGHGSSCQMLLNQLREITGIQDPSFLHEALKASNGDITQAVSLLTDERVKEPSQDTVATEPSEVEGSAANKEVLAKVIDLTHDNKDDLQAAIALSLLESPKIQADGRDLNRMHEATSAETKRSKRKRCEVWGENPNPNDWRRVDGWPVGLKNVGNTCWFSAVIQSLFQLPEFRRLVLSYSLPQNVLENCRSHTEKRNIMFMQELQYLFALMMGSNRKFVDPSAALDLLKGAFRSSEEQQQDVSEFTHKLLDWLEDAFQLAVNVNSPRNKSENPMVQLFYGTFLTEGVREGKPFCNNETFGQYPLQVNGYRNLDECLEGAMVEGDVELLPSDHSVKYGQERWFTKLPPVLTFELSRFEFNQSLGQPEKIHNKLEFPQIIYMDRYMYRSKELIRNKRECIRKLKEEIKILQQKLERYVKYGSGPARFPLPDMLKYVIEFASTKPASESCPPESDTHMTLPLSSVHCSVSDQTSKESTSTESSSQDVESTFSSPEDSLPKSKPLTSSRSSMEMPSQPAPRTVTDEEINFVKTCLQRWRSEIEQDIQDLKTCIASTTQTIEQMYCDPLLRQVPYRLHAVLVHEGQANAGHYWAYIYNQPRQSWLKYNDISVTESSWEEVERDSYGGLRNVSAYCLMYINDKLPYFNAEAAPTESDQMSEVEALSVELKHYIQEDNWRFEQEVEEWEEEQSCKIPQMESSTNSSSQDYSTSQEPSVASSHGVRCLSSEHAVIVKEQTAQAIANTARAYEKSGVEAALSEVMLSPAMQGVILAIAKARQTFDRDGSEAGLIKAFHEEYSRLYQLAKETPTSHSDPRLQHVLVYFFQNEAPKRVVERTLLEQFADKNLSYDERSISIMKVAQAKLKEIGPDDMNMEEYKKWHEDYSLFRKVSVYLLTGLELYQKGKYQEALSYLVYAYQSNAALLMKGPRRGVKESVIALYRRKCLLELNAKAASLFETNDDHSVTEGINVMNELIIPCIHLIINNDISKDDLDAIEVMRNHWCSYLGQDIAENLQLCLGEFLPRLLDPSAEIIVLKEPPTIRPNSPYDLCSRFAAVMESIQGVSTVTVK
Experiment: Ubiquitin-Rhodamine 110 Assay for USP28 Activity, Example A-1(a)
Type: biochemical
Procedure: Example A-1(a): Biochemical Assay: Ubiquitin-Rhodamine 110 Assay for USP28 Activity
The assay was performed in a final volume of 9 μL in assay buffer containing 20 mM Tris-HCl (pH 8.0, (1M Tris-HCl, pH 8.0 solution; Corning 46-031-CM)), 3 mM BME (2-Mercaptoethanol; Sigma 63689-25ML-F), 0.03% BGG (0.22 μM filtered, Sigma, G7516-25G), and 0.01% Triton X-100 (Sigma, T9284-10L). Nanoliter quantities of 10-point, 3-fold serial dilution in DMSO was pre-dispensed into 1536 assay plates (Corning, #3724BC) for a final test concentration of 25 μM to 1.3 nM, top to lowest dose, respectively. Enzyme USP28, construct His-tagged USP28-FL-mammalian, (protein expression and purification procedure described below). Concentration and incubation times were optimized for the maximal signal-to-background while maintaining initial velocity conditions at a fixed substrate concentration. The final concentration of the enzyme in the assay was […]. Final substrate (Ub-Rh110; Ubiquitin-Rhodamine 110, UbiQ-126) concentration was 25 nM with [Ub-Rh110]<<Km. 3 μL of 2× enzyme was added to assay plates (pre-stamped with compound) preincubated with […] for 30 minutes and then 3 μL of 2× Ub-Rh110 was added to assay plates. Plates were incubated for 45 minutes at room temperature before addition of 3 μL of stop solution (final concentration of 10 mM citric acid (Sigma, 251275-500G)). Fluorescence was read on the Envision (Excitation at 485 nm and Emission at 535 nm; Perkin Elmer) or on the PheraSTAR (Excitation at 485 nm and Emission at 535 nm; BMG Labtech).
Procedure for the Protein expression and purification for construct His-tagged USP28-FL-mammalian
Expression of USP28 (1-1077)-TEV-6*His (pTT5 vector) was carried out in Expi293f cells (sequence derived from uniprot ID: Q96RU2-1). Cells were re-suspended in lysis buffer B 50 mM Bicine, pH 8.0, 20 mM NaCl, 5% glycerol, 0.1% CHAPS, 5 mM β-ME, 1 mM PMSF, 1 ug/ml Leupeptin, 1 ug/ml Pepstatin) and lysed by sonication. Insoluble material was removed by centrifugation and the supernatant was loaded onto a Ni-NTA column (GE Healthcare) equilibrated with Ni Buffer A (50 mM Bicine, pH 8.0, 20 mM NaCl, 5% glycerol, 0.1% CHAPS, 5 mM R-ME.) and washed with Ni Buffer A+20 mM imidazole until A280 reached baseline. The protein was eluted with Ni Buffer B (50 mM Bicine, pH 8.0, 20 mM NaCl, 5% glycerol, 0.1% CHAPS, 5 mM β-ME, 300 mM imidazole.). The protein was further purified using a Superdex™ 200 10/300 GL column (GE Healthcare) equilibrated with 50 mM Bicine, pH 8.0, 20 mM NaCl, 5% glycerol, 0.1% CHAPS, 5 mM β-ME. The protein was concentrated to 2.5 mg ml-1, flash-frozen in liquid N2 and stored at −80° C.
For assay formats Example A-1(a), A-1(b), and A-2, data were reported as percent inhibition compared with control wells based on the following equation: % inh=1−((FLU−AveLow)/(AveHigh−AveLow)) where FLU=measured Fluorescence, AveLow=average Fluorescence of no enzyme control (n=16), and AveHighh=average Fluorescence of DMSO control (n=16). IC50 values were determined by curve fitting of the standard 4 parameter logistic fitting algorithm included in the Activity Base software package: IDBS XE Designer Model 205. Data is fitted using the Levenburg Marquardt algorithm.

[1] = Ubiquitin-Rhodamine 110 biochemical assay, read-out: USP28 A-1(a) IC50 range
[2] = biochemical IC50 range, Ubiquitin-Rhodamine 110 assay, read-out: USP28 A-1(a)

Molecule | IC50 [1] [µM] | IC50 [2] [µM]
CO[C@@H]1CCCN(c2ccc3c(n2)CC[C@H](NC(=O)c2sc4nc(C)ccc4c2N)C3)C[C@@H]1N [Example 495, 3-amino-N-[(6S)-2-[(3S,4R)-3-amino-4-methoxyazepan-1-yl]-5,6,7,8-tetrahydroquinolin-6-yl]-6-methylthieno[2,3-b]pyridine-2-carboxamide] | 0.05 to 0.2 | –
Cc1ccc2c(N)c(C(=O)N[C@H]3CCc4nc(N5C[C@H](N)[C@@]6(CCCCO6)C5)ccc4C3)sc2n1 [Example 508, 3-amino-N-[(6S)-2-[(4S,5R)-4-amino-6-oxa-2-azaspiro[4.5]decan-2-yl]-5,6,7,8-tetrahydroquinolin-6-yl]-6-methylthieno[2,3-b]pyridine-2-carboxamide] | 0.05 to 0.2 | –
Cc1ccc2c(N)c(C(=O)N[C@H]3COc4nc(N5C[C@@H](CF)[C@H](N)C5)ccc4C3)sc2n1 [Example 542, 3-amino-N-[(3R)-7-[(3S,4R)-3-amino-4-(fluoromethyl)pyrrolidin-1-yl]-2H,3H,4H-pyrano[2,3-b]pyridin-3-yl]-6-methylthieno[2,3-b]pyridine-2-carboxamide] | – | 0.05 to 0.2
3-amino-N-[(6S)-2-[(3R,4S)-3-(methoxymethyl)-4-[(^2H3)methylamino]pyrrolidin-1-yl]-5,6,7,8-tetrahydroquinolin-6-yl]-6-methylthieno[2,3-b]pyridine-2-carboxamide [Example 487] | 0.2 to 2 | –
Cc1ccc2c(N)c(C(=O)N[C@H]3COc4nc(N5C[C@H](CF)[C@H](N)C5)ccc4C3)sc2n1 [Example 540, 3-amino-N-[(3R)-7-[(3S,4S)-3-amino-4-(fluoromethyl)pyrrolidin-1-yl]-2H,3H,4H-pyrano[2,3-b]pyridin-3-yl]-6-methylthieno[2,3-b]pyridine-2-carboxamide] | – | 0.05 to 0.2
Cc1ccc2c(N)c(C(=O)N[C@H]3CCc4nc(N5CC[C@]6(CCCN6)C5)ccc4C3)sc2n1 [Example 505, 3-amino-N-[(6S)-2-[(5R)-1,7-diazaspiro[4.4]nonan-7-yl]-5,6,7,8-tetrahydroquinolin-6-yl]-6-methylthieno[2,3-b]pyridine-2-carboxamide] | 0.05 to 0.2 | –
Cc1ccc2c(N)c(C(=O)N[C@H]3COc4cc(OC[C@@H]5CNC[C@H]5C(F)(F)F)ccc4C3)sc2n1 [Example 687, 3-amino-6-methyl-N-[(3R)-7-{[(3S,4S)-4-(trifluoromethyl)pyrrolidin-3-yl]methoxy}-3,4-dihydro-2H-1-benzopyran-3-yl]thieno[2,3-b]pyridine-2-carboxamide] | – | 0.001 to 0.05
CO[C@@]12CCN[C@@H]1CN(c1ccc3c(c1)OC[C@H](NC(=O)c1sc4nc(C)ccc4c1N)C3)C2 [Example 667, N-[(3R)-7-[(3aR,6aR)-3a-methoxyoctahydropyrrolo[2,3-c]pyrrol-5-yl]-3,4-dihydro-2H-1-benzopyran-3-yl]-3-amino-6-methylthieno[2,3-b]pyridine-2-carboxamide] | – | 0.001 to 0.05
Cc1ccc2c(N)c(C(=O)N[C@H]3COc4cc(N5C[C@H](N)[C@]6(CCCCO6)C5)ccc4C3)sc2n1 [Example 652, 3-amino-N-[(3R)-7-[(4S,5S)-4-amino-6-oxa-2-azaspiro[4.5]decan-2-yl]-3,4-dihydro-2H-1-benzopyran-3-yl]-6-methylthieno[2,3-b]pyridine-2-carboxamide] | – | 0.001 to 0.05
CO[C@H]1CN(c2ccc3c(n2)CC[C@H](NC(=O)c2sc4cnccc4c2N)C3)C[C@@H]1N [Example 504, 3-amino-N-[(6S)-2-[(3S,4S)-3-amino-4-methoxypyrrolidin-1-yl]-5,6,7,8-tetrahydroquinolin-6-yl]thieno[2,3-c]pyridine-2-carboxamide] | > 2 | –
CO[C@@H]1CCCN(c2cc(F)c3c(c2)OC[C@H](NC(=O)c2sc4nc(C)ccc4c2N)C3)C[C@H]1N [Example 689, 3-amino-N-[(3R)-7-[(3R,4R)-3-amino-4-methoxyazepan-1-yl]-5-fluoro-3,4-dihydro-2H-1-benzopyran-3-yl]-6-methylthieno[2,3-b]pyridine-2-carboxamide] | – | 0.001 to 0.05
